Data: patent US20220324865A1 (Bayer Aktiengesellschaft, priority 2018, published 2022)

biological target: T1, human EP3 receptor (Homo sapiens, UniProt P43115); assay: Cellular in vitro assay for determining EP3 receptor activity (human EP3 cell line, sulprostone-stimulated calcium luminescence); format: cell-based; details: CHO cells expressing human EP3 and mitochondrial Clytin; antagonist mode, sulprostone at EC50; read-out: EP3 CHO mtCLY ANTAG IC50
T1 construct: expressed in transfected cells; host or cells: CHO K1 (Chinese Hamster Ovary), stably co-transfected with Galpha16 and mitochondrial clytin
T1 sequence (P43115 1-390): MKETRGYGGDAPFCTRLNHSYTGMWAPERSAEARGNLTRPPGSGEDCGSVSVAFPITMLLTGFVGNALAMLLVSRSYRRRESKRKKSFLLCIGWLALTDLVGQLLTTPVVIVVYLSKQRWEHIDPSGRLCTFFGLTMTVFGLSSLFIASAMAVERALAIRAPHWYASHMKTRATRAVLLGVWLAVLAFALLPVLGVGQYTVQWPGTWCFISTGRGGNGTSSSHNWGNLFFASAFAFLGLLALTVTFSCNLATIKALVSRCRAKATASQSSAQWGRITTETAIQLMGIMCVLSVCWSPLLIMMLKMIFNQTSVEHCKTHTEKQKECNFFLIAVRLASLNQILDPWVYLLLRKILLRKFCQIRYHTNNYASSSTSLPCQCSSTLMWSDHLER
Summary of the method: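 Antagonist activity was measured as inhibition of the luminescent calcium signal elicited by EC50 sulprostone, following 10 min compound pretreatment. The cell line was recombinant CHO K1 co-expressing human EP3, Gα16 and the photoprotein Clytin, reconstituted with coelenterazine.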

SMILES	IC50 [nM]
CCN(CCO)CC(NC(=O)c1cc2c(=O)[nH]c(-c3ccc(C)c(C)c3)cn2n1)c1ccccc1 (stereo not drawn) [Example 1-85, 6-(3,4-Dimethylphenyl)-N-[2-[ethyl(2-hydroxyethyl)amino]-1-phenylethyl]-4-oxo-5H-pyrazolo-[1,5-a]pyrazine-2-carboxamide]	3
Cc1cccc2ncc(-c3cn4nc(C(=O)NCc5ccnn5C)c(C(C)C)c4c(=O)[nH]3)cc12 [Example 4-22, N-[(1-Methyl-1H-pyrazol-5-yl)methyl]-6-(5-methylquinolin-3-yl)-4-oxo-3-(propan-2-yl)-4,5-dihydropyrazolo[1,5-a]pyrazine-2-carboxamide]	0.815
Cc1cccc2ncc(-c3cn4nc(C(=O)NC(C)c5ccc(F)cc5)c(C(C)C)c4c(=O)[nH]3)cc12 (stereo not drawn) [Example 4-11, N-[1-(4-Fluorophenyl)ethyl]-3-isopropyl-6-(5-methyl-3-quinolyl)-4-oxo-5H-pyrazolo[1,5-a]pyrazine-2-carboxamide]	0.735
O=C(NC(CN1CCCC1)c1ccc(F)cc1)c1cc2c(=O)[nH]c(-c3ccc4ccccc4c3)cn2n1 (stereo not drawn) [Example 1-44, N-[1-(4-Fluorophenyl)-2-(pyrrolidin-1-yl)ethyl]-6-(2-naphthyl)-4-oxo-5H-pyrazolo[1,5-a]pyrazine-2-carboxamide]	8.97
CCn1nccc1CNC(=O)c1nn2cc(-c3cnc4cccc(C)c4c3)[nH]c(=O)c2c1C(C)C [Example 4-16, N-[(1-Ethyl-1H-pyrazol-5-yl)methyl]-6-(5-methylquinolin-3-yl)-4-oxo-3-(propan-2-yl)-4,5-dihydropyrazolo[1,5-a]pyrazine-2-carboxamide]	0.5
N#Cc1c(C(=O)NC2Cc3ccccc3C2)nn2cc(-c3ccc4ccccc4c3)[nH]c(=O)c12 [Example 3-55, 3-Cyano-N-(2,3-dihydro-1H-inden-2-yl)-6-(naphthalen-2-yl)-4-oxo-4,5-dihydropyrazolo[1,5-a]pyrazine-2-carboxamide]	7.2
Cc1c(C(=O)N[C@H](C)c2ccc(F)cc2)nn2c(C)c(-c3ccc4ccccc4c3)[nH]c(=O)c12 [Example 1-23, N-[(1R)-1-(4-Fluorophenyl)ethyl]-3,7-dimethyl-6-(naphthalen-2-yl)-4-oxo-4,5-dihydropyrazolo-[1,5-a]pyrazine-2-carboxamide]	5.55
CC(NC(=O)c1cc2c(=O)[nH]c(-c3ccc4ccccc4c3)cn2n1)c1ccc(Cl)c(Cl)c1 (stereo not drawn) [Example 2-36, N-[1-(3,4-Dichlorphenyl)ethyl]-6-(2-naphthyl)-4-oxo-4,5-dihydropyrazolo[1,5-a]pyrazine-2-carboxamide]	2.8
CN1CC(NC(=O)c2cc3c(=O)[nH]c(-c4ccc5c(c4)CCC5)cn3n2)(c2ccc(F)cc2)C1 [Example 1-96, 6-(2,3-Dihydro-1H-inden-5-yl)-N-[3-(4-fluorophenyl)-1-methylazetidin-3-yl]-4-oxo-4,5-dihydropyrazolo[1,5-a]pyrazine-2-carboxamide]	2.65
Cc1cccc2ncc(-c3cn4nc(C(=O)NC(CN5CCCC5)c5ccccc5)c(C(C)C)c4c(=O)[nH]3)cc12 (stereo not drawn) [Example 4-63, 3-Isopropyl-6-(5-methylquinolin-3-yl)-4-oxo-N-[1-phenyl-2-(pyrrolidin-1-yl)ethyl]-4,5-dihydropyrazolo[1,5-a]pyrazine-2-carboxamide]	9.45
Cc1cccc2ncc(-c3cn4nc(C(=O)NC(CO)c5ccc(Br)cc5)c(C(C)C)c4c(=O)[nH]3)cc12 (stereo not drawn) [Example 4-75, N-[1-(4-Bromophenyl)-2-hydroxyethyl]-3-isopropyl-6-(5-methyl-3-quinolyl)-4-oxo-5H-pyrazolo[1,5-a]pyrazine-2-carboxamide]	1.25
C[C@H](NC(=O)c1cc2c(=O)[nH]c(-c3ccc4ccccc4c3)cn2n1)c1ccccc1 [Example 2-34, 6-(2-Naphthyl)-4-oxo-N-[(7S)-1-phenylethyl]-4,5-dihydropyrazolo[1,5-a]pyrazine-2-carboxamide]	1.9
Cc1ccc(-c2cn3nc(C(=O)NCC(O)C(F)(F)F)c(C4CC4)c3c(=O)[nH]2)cc1F (single isomer, unassigned; enantiomer2) [Example 1-161, 3-Cyclopropyl-6-(3-fluoro-4-methylphenyl)-4-oxo-N-(3,3,3-trifluoro-2-hydroxpropyl)-4,5-dihydropyrazolo[1,5-a]pyrazine-2-carboxamide (enantiomer2)]	5.7
Cc1cccc2ncc(-c3cn4nc(C(=O)NC(C)CC5CC5)c(C(C)C)c4c(=O)[nH]3)cc12 (stereo not drawn) [Example 4-18, N-(1-Cyclopropylpropan-2-yl)-3-isopropyl-6-(5-methylquinolin-3-yl)-4-oxo-4,5-dihydropyrazolo[1,5-a]pyrazine-2-carboxamide]	1.05
Cc1cccc2ncc(-c3cn4nc(C(=O)NC5CCc6ccccc65)c(C(C)C)c4c(=O)[nH]3)cc12 (stereo not drawn) [Example 4-72, N-(2,3-Dihydro-1H-inden-1-yl)-3-isopropyl-6-(5-methylquinolin-3-yl)-4-oxo-4,5-dihydropyrazolo[1,5-a]pyrazine-2-carboxamide]	6.05
Cc1cccc2ncc(-c3cn4nc(C(=O)NC(C)c5cccc(Br)c5)c(C(C)C)c4c(=O)[nH]3)cc12 (stereo not drawn) [Example 4-62, N-[1-(3-Bromophenyl)ethyl]-3-isopropyl-6-(5-methyl-3-quinolyl)-4-oxo-5H-pyrazolo[1,5-a]pyrazine-2-carboxamide]	2.05
C[C@@H](NC(=O)c1cc2c(=O)[nH]c(-c3ccc4ccccc4c3)cn2n1)c1cccc2ccccc12 [Example 2-27, 6-(2-Naphthyl)-N-[(7R)-1-(1-naphthyl)ethyl]-4-oxo-4,5-dihydropyrazolo[1,5-a]pyrazine-2-carboxamide]	3.25

The next lines start with the values.

IC50 [nM]	SMILES
0.887	COc1ccc(CCNC(=O)c2nn3cc(-c4ccc5ccccc5c4)[nH]c(=O)c3c2C(C)C)cc1OC [6-85]
0.91	Cc1cc(-c2cn3nc(C(=O)NCCC(O)C(F)(F)F)c(C4CC4)c3c(=O)[nH]2)ccc1Cl (single isomer, unassigned) [6-310]
1.43	Cc1ccc(-c2cn3nc(C(=O)NCCN(C)C4CC4)c(C4CC4)c3c(=O)[nH]2)cc1C [6-661]
3.15	CC(C)(C)OC(=O)NCC(NC(=O)c1cc2c(=O)[nH]c(-c3ccc4c(c3)OCCO4)cn2n1)c1ccc(F)cc1 (stereo not drawn) [6-43]
3.23	Cc1ccc(-c2cn3nc(C(=O)NC(CN(C)C)c4ccc(F)cc4)c(C4CC4)c3c(=O)[nH]2)cc1C (racemic) [6-444]
4.65	Cc1ccc(-c2cn3nc(C(=O)NC[C@]4(C5CC5)NC(=O)NC4=O)c(C4CC4)c3c(=O)[nH]2)cc1C [6-457]
6.2	Cc1ccc(-c2cn3nc(C(=O)NC(C)CN4CCOCC4)c(C4CC4)c3c(=O)[nH]2)cc1C (single isomer, unassigned) [6-452]
1.09	Cc1ccc(-c2cn3nc(C(=O)N[C@@H](C)C4CC4)c(C(F)(F)F)c3c(=O)[nH]2)cc1C [6-119]
0.97	Cc1ccc(-c2cn3nc(C(=O)NC4(c5ccc(F)cc5)CN(CC(F)F)C4)c(C(F)(F)F)c3c(=O)[nH]2)cc1Cl [6-202]
7.5	COC[C@@H](C)NC(=O)c1nn2cc(-c3ccc(C(F)(F)F)c(C)c3)[nH]c(=O)c2c1C1CC1 [6-136]
0.82	Cc1ccc(-c2cn3nc(C(=O)NCC(O)C(F)(F)F)c(C4CC4)c3c(=O)[nH]2)cc1Cl (racemic) [6-258]
4.65	O=C(N[C@H](CCO)c1ccc(F)cc1)c1cc2c(=O)[nH]c(-c3cnc4ccccc4c3)cn2n1 [6-11]
1.52	Cc1ccc(-c2cn3nc(C(=O)NC(c4ccc(F)cc4)C4(O)CC4)c(C4CC4)c3c(=O)[nH]2)cc1F (racemic) [6-381]
2.23	Cc1ccc(-c2cn3nc(C(=O)N[C@@H](c4ccc(F)cc4)C(F)(F)CO)c(C(F)(F)F)c3c(=O)[nH]2)cc1F [6-141]
0.65	COC[C@H](NC(=O)c1nn2cc(-c3ccc(Cl)c(C)c3)[nH]c(=O)c2c1C1CC1)c1ccccc1 [6-304]
7.1	COc1ccc(C2(NC(=O)c3cc4c(=O)[nH]c(-c5ccc6ccccc6c5)cn4n3)CN(C)C2)cn1 [6-63]
5.55	O=C(NCC(O)C(F)(F)F)c1nn2cc(-c3ccc4c(c3)OCCO4)[nH]c(=O)c2c1C(F)(F)F (single isomer, unassigned) [6-533]
1.6	Cc1cc(-c2cn3nc(C(=O)NC4(c5ccccc5)CCOCC4)c(C(F)(F)F)c3c(=O)[nH]2)ccc1Cl [6-230]
7.8	C[C@H](CO)NC(=O)c1nn2cc(-c3ccc4ccccc4c3)[nH]c(=O)c2c1C(F)(F)F [6-525]
2.3	CC[C@@H](C)NC(=O)c1nn2cc(-c3ccc(Cl)c(C)c3)[nH]c(=O)c2c1C(F)(F)C(F)(F)F [6-479]
8.55	Cn1cnc2cc(-c3cn4nc(C(=O)N[C@@H](c5ccc(F)cc5)C(C)(C)O)c(C(F)(F)F)c4c(=O)[nH]3)ccc21 [6-659]
1.5	Cc1ccc(-c2cn3nc(C(=O)NC4(c5ccc(F)cc5)CN(C5CC5)C4)c(C(F)(F)F)c3c(=O)[nH]2)cc1Cl [6-203]
6.55	Cc1ccc(-c2cn3nc(C(=O)N[C@@H](c4ccc(F)cc4)C(C)(C)O)cc3c(=O)[nH]2)cc1F [6-644]
1.75	O=C(NCC(O)C(F)(F)F)c1nn2cc(-c3ccc4c(c3)OCCO4)[nH]c(=O)c2c1C1CC1 (racemic) [6-465]
2.8	CC(C)(O)[C@@H](NC(=O)c1nn2cc(-c3ccc(Cl)c(F)c3)[nH]c(=O)c2c1C1CCC1)c1ccc(F)cc1 [6-572]
